Ki and IC50 data for 17 molecules are collected here from patent US5849691A, “Peptidomimetic inhibitors of cathepsin D and plasmepsins I and II” (The United States of America as represented by the …, priority 1996, dated 1998).

Molecules are shown by their SMILES. Numbered stars: 1 amine (or outer) side, 2 acyl side, 3 side chain; on linkers, the order of the positions; unused ones are H or OH. Bridge positions count the residues as written; N and C are the ends. Square brackets hold non-standard residues; d marks the D form. Peptide text beside a SMILES is read from it. * marks the point of attachment. Ahppa(3S,4S) = O=C(C[C@H](O)[C@H](Cc1ccccc1)N[*:1])[*:2]; Butanoyl(3,3-Me2) = CC(C)(C)CC(=O)*; Isopropoxycarbonyl = CC(C)OC(=O)*; CH2CH2 = C(C[*:2])[*:1]

Chain of plasmepsin II (PMII) (P46925 125-453): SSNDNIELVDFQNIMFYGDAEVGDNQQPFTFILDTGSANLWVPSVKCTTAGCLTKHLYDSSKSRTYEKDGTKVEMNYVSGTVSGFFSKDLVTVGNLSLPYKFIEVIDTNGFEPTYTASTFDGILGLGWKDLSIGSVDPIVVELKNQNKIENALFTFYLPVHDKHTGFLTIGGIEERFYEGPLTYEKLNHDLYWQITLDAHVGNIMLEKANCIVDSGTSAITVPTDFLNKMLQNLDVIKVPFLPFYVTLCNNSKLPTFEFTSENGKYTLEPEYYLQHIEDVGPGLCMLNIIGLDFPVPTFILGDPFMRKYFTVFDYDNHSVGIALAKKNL

For one experiment, the target named is plasmepsin I (PMI) (Plasmodium falciparum, UniProt P39898). The experiment can be described thus: biochemical.
Chain of plasmepsin I (PMI) (P39898 124-452): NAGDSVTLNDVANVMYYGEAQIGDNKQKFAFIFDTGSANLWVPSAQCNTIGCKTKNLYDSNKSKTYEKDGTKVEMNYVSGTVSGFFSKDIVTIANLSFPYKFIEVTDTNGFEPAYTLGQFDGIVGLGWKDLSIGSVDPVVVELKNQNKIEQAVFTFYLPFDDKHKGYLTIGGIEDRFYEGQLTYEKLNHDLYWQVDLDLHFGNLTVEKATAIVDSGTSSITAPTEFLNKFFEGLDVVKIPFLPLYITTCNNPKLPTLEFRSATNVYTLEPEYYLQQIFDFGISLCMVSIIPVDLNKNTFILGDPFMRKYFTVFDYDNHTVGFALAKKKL
Conditions: not given
Take `CC(C)C[C@H](NC(=O)[C@@H](NC(=O)C[C@H](O)[C@@H]1CCCCNC(=O)CC[C@H](NC(=O)CC(C)(C)C)C(=O)N[C@@H](C(C)C)C(=O)N1)C(C)C)C(=O)NCC(N)=O` [drawing 40]: the inhibition constant Ki (as a rule, the dissociation constant of the complex between target and ligand, obtained from inhibition or displacement) is 22 nM. In the case of `CC(C)C[C@H](NC(=O)[C@H](C)NC(=O)C[C@H](O)[C@H](Cc1ccccc1)NC(=O)[C@@H](NC(=O)c1ccccn1)C(C)C)C(N)=O` [drawing 42], the inhibition constant (Ki) was 16 nM.

A further experiment has as its target plasmepsin II (PMII) (Plasmodium falciparum, UniProt P46925). The experiment can be described thus: biochemical.
Conditions: not given
On the procedure:
(§1) Typically, 485 μl of 50 mM Gly-HC1 buffer, pH 3.5 (in the case of cathepsin D), or 100 mM sodium acetate buffer, pH 5.0 (in the case of plasmepsin 2), was mixed with 5 μl of DMSO and 5 μl of titrated protease (final concentration 0.2-10 nM) and incubated 3 min at 37° C. The reaction was initiated by the addition of 5 μl of substrate stock solution in DMSO. Increase in fluorescence intensity at the emission maximum of 487 nm (excitation wavelength was 349 nm) was monitored as a function of time using an Aminco Bowman-2 luminescence spectrometer (SLM Instruments, Inc.).
(§2) The initial rate of hydrolysis was calculated by a second degree polynomial fit using SLM AB2 2.0 operating software. Kinetic parameters were determined by nonlinear regression fitting of initial rate versus substrate concentration data to the Michaelis-Menten equation using the program Enzfitter version 1.05 (Leatherbarrow, R. J. 1987. Enzfitter, a program for non-linear regression analysis. Elsevier Scientific, New York).
For inhibition studies inhibitors were prepared as stock solutions at different concentrations in DMSO. In a typical experiment 485 μl of the appropriate buffer was mixed with 5 μl of inhibitor stock solution and 5 μ of titrated protease (final concentration 0.2-10 nM) and preincubated 3 min at 37° C. The reaction was initiated by the addition of 5 μl of substrate stock solution in DMSO. […]
Take `CC(C)C[C@H](NC(=O)[C@@H](NC(=O)C[C@H](O)[C@@H]1CCCCNC(=O)CC[C@H](NC(=O)CC(C)(C)C)C(=O)N[C@@H](C(C)C)C(=O)N1)C(C)C)C(=O)NCC(N)=O` [drawing 40]: the Ki is 0.2 nM. Same read-out and setting: then `CC(C)C[C@H](NC(=O)[C@H](C)NC(=O)C[C@H](O)[C@H](Cc1ccccc1)NC(=O)[C@@H](NC(=O)c1ccccn1)C(C)C)C(N)=O` [drawing 42], with 0.9 nM.

For a further experiment, the target named is cathepsin D (Homo sapiens, UniProt P07339). The experiment can be described thus: cathepsin D inhibition assay with fluorogenic substrate (tight-binding kinetics). Type of experiment: biochemical.
Chain of cathepsin D (P07339 65-412): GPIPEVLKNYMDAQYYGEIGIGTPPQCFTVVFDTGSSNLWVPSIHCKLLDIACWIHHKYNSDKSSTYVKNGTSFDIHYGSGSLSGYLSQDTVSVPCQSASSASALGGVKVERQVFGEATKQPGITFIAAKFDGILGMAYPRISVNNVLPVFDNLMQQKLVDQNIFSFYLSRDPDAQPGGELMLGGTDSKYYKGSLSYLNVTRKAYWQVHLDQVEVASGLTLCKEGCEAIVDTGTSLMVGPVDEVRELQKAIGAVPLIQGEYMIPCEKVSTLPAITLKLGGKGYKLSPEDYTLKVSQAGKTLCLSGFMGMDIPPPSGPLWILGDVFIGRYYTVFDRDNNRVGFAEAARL
Conditions: not given
How it is done:
as §1, §2
For inhibition studies inhibitors were prepared as stock solutions at different concentrations in DMSO. In a typical experiment 485 μl of the appropriate buffer was mixed with 5 μl of inhibitor stock solution and 5 μ of titrated protease (final concentration 0.2-10 nM) and preincubated 3 min at 37° C. The reaction was initiated by the addition of 5 μl of substrate stock solution in DMSO. For data analysis the mathematical model for tight-binding inhibitors (Williams, J. W., and Morrison, J. F. Methods Enzymol. 63:437 (1979)) was used. The data were fitted by nonlinear regression analysis to the equation
V=V0 /2Et ({[K1 (1+S/Km)+It -Et ]^2
+4Ki (1+S/Km)Et }^1/2 -[Ki (1+S/Km)+It
`CCCCCNC(=O)[C@@H](NC(=O)C[C@H](O)[C@H](Cc1ccccc1)NC(=O)CCCC)C(C)C`: affinity was put at a Ki of 400 nM.

Turning to `CC(C)C[C@H](NC(=O)[C@H](C)NC(=O)C[C@H](O)[C@H](Cc1ccccc1)NC(=O)[C@@H](NC(=O)CN(C)C)C(C)C)C(N)=O`, the IC50 – broadly, the concentration that gives 50% inhibition – came out at 1000 nM. Take `CC(C)C[C@H](NC(=O)[C@H](C)NC(=O)C[C@H](O)[C@H](Cc1ccccc1)NC(=O)[C@@H](NC(=O)Cc1ccccn1)C(C)C)C(N)=O`: the Ki turned out to be 20 nM. As to `CC(C)C[C@H](NC(=O)[C@H](C)NC(=O)C[C@H](O)[C@H](Cc1ccccc1)NC(=O)[C@@H](NC(=O)OC(C)C)C(C)C)C(N)=O`, the IC50 was 20 nM.

Molecule `CC(C)[C@@H]1NC(=O)C[C@H](O)[C@H](Cc2ccccc2)NC(=O)[C@@H](NC(=O)[C@@H](NC(=O)CC(C)(C)C)C(C)C)CSCCCSC[C@@H](C(=O)NCC(N)=O)NC1=O` had an inhibition constant Ki of 1.5 nM. Turning to `CC(C)[C@@H]1NC(=O)C[C@H](O)[C@H](Cc2ccccc2)NC(=O)[C@@H](NC(=O)[C@@H](NC(=O)CC(C)(C)C)C(C)C)CSCCCCSC[C@@H](C(=O)NCC(N)=O)NC1=O`, the Ki is 0.1 nM. With `CC(C)C[C@H](NC(=O)[C@@H](NC(=O)C[C@H](O)[C@@H]1CCCCNC(=O)C[C@H](NC(=O)CC(C)(C)C)C(=O)N[C@@H](C(C)C)C(=O)N1)C(C)C)C(=O)NCC(N)=O`, the affinity, expressed as Ki, was 2.5 nM.

Regarding `CC(C)C[C@H](NC(=O)[C@H](C)NC(=O)C[C@H](O)[C@H](Cc1ccccc1)NC(=O)[C@@H](NC(=O)[C@@H](NC(=O)OC(C)C)C(C)C)C(C)C)C(N)=O` (Isopropoxycarbonyl-VV[Ahppa(3S,4S)]AL-NH2), the inhibition constant Ki was found to be 0.24 nM. Same read-out and setting: then `CC(C)[C@@H]1NC(=O)C[C@H](O)[C@H](Cc2ccccc2)NC(=O)[C@@H](NC(=O)[C@@H](NC(=O)CC(C)(C)C)C(C)C)CSSC[C@@H](C(=O)NCC(N)=O)NC1=O` ({Butanoyl(3,3-Me2)}-VC[Ahppa(3S,4S)]VCG-NH2; disulfide 2-5), with 150 nM; and `CC(C)[C@@H]1NC(=O)C[C@H](O)[C@H](Cc2ccccc2)NC(=O)[C@@H](NC(=O)[C@@H](NC(=O)CC(C)(C)C)C(C)C)CSCCSC[C@@H](C(=O)NCC(N)=O)NC1=O` ({Butanoyl(3,3-Me2)}-VC[Ahppa(3S,4S)]VCG-NH2; linker 2-5 via CH2CH2), with 1.9 nM. Same read-out and setting: the same measure for `CC(C)[C@@H]1NC(=O)C[C@H](O)[C@H](Cc2ccccc2)NC(=O)[C@@H](NC(=O)[C@@H](NC(=O)CC(C)(C)C)C(C)C)CCC(=O)NCCCC[C@@H](C(=O)NCC(N)=O)NC1=O` ({Butanoyl(3,3-Me2)}-VE[Ahppa(3S,4S)]VKG-NH2; lactam 2-5): 2.3 nM; for `CC(C)[C@@H]1NC(=O)C[C@H](O)[C@H](Cc2ccccc2)NC(=O)[C@@H](NC(=O)[C@@H](NC(=O)CC(C)(C)C)C(C)C)CCCCNC(=O)CC[C@@H](C(=O)NCC(N)=O)NC1=O` ({Butanoyl(3,3-Me2)}-VK[Ahppa(3S,4S)]VEG-NH2; lactam 2-5): 1.4 nM; for `CC(C)C[C@H](NC(=O)[C@@H](NC(=O)C[C@H](O)[C@H](Cc1ccccc1)NC(=O)[C@H](CC(=O)O)NC(=O)[C@@H](NC(=O)CC(C)(C)C)C(C)C)C(C)C)C(=O)NCC(N)=O` [(10), Tha--Val--Asp--Pst--Val--Leu--Gly--NH2] ({Butanoyl(3,3-Me2)}-VD[Ahppa(3S,4S)]VLG-NH2): 2.1 nM. Still for that read-out and setting: the same measure for `CC(C)C[C@H](NC(=O)[C@@H](NC(=O)C[C@H](O)[C@@H]1CCCCNC(=O)CC[C@H](NC(=O)CC(C)(C)C)C(=O)N[C@@H](C(C)C)C(=O)N1)C(C)C)C(=O)NCC(N)=O` [drawing 29]: 0.26 nM.

Still in this experiment, the particulars now being: target named only in b168/b175 (cathepsin D), elsewhere implied; read-out: Ki.
Regarding `CC(C)C[C@H](NC(=O)[C@H](C)NC(=O)C[C@H](O)[C@H](Cc1ccccc1)NC(=O)[C@@H](NC(=O)c1ccccn1)C(C)C)C(N)=O` [drawing 15], the inhibitory constant (Ki) is 21 nM.
